Earlier results on 2 compounds are cited in patent publication US8211015B2 (priority 2006, dated 2012).

For this data set the following is noted: in vivo.

Regarding `CCOC(=O)C1(c2ccccc2)CCN(C)CC1` [meperidine], the “analgesic effect on labor pain” value is listed as “more sedation than actual analgesia”.
Take `CN1CC[C@]23c4c5ccc(O)c4O[C@H]2[C@@H](O)C=C[C@H]3[C@H]1C5` [morphine]: the “analgesic effect on labor pain” value is given as “more sedation than actual analgesia”.
